Common to all, as to assay: KINOMEscan
Type in all cases: binding
Common to all, as to details: read-out: % control activity remaining

One test deals with T1, PIK3CA(Q546K) (Homo sapiens, UniProt P42336, Q546K).
T1 construct: purchased Eurofins DiscoverX KINOMEscan

The target of a further test is T2, PRKR (Homo sapiens, UniProt P19525).
T2 construct: purchased Eurofins DiscoverX KINOMEscan

For a further test, the target named is T3, TXK (Homo sapiens, UniProt P42681).
T3 construct: purchased Eurofins DiscoverX KINOMEscan
T3 sequence (P42681 1-527): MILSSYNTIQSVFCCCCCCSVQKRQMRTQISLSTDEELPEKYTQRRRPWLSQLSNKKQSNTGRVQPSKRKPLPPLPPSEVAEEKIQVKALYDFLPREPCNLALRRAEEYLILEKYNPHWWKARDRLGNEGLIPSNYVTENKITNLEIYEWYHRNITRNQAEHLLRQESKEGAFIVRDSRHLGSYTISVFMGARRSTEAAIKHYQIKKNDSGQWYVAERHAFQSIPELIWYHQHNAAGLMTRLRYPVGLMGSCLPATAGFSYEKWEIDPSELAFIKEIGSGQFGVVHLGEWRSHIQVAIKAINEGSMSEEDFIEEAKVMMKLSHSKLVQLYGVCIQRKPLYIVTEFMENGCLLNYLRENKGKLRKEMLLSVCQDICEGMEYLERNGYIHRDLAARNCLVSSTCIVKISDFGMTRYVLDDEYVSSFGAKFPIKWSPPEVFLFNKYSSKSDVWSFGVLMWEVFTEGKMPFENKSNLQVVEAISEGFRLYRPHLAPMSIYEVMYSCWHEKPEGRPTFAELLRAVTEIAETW

For the next test, the target named is T4, MYO3B (Homo sapiens, UniProt Q8WXR4).
T4 construct: purchased Eurofins DiscoverX KINOMEscan
T4 sequence (Q8WXR4 1-1341): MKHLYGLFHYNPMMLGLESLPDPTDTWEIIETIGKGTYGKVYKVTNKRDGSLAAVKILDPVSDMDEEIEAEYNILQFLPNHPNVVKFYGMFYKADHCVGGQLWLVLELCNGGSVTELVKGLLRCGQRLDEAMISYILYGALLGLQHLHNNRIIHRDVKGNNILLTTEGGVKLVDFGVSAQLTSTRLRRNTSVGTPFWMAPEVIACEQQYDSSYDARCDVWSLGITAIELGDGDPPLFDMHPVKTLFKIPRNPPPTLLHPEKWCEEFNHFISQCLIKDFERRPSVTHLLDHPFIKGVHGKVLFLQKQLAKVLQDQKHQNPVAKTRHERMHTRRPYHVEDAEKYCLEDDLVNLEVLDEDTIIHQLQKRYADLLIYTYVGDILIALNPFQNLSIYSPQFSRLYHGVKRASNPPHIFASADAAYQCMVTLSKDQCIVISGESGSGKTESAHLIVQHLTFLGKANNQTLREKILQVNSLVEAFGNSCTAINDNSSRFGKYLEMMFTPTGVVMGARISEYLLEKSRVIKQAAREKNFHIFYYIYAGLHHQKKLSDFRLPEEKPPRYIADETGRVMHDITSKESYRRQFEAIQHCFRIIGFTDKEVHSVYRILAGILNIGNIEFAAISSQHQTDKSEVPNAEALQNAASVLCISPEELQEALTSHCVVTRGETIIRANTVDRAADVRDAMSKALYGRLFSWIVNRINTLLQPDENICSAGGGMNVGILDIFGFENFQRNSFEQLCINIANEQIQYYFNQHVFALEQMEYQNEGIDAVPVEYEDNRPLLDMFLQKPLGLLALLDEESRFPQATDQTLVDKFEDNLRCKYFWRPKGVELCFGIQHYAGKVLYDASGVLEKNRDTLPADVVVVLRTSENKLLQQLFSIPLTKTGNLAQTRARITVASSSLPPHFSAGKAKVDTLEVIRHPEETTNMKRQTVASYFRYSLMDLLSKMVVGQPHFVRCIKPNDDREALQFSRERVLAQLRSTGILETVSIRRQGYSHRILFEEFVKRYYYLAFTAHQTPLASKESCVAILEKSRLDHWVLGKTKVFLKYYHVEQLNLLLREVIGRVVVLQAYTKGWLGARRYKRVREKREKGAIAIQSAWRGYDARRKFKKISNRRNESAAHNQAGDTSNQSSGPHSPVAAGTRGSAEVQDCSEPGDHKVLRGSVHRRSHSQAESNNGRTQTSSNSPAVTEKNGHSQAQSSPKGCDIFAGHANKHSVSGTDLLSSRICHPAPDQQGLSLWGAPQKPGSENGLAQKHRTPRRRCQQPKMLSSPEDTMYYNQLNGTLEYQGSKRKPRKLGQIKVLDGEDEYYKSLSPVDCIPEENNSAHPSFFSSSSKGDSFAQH

A further test has as its target T5, PIP5K1C (Homo sapiens, UniProt O60331).
T5 construct: purchased Eurofins DiscoverX KINOMEscan

A further test concerns the target T6, FLT3(D835H) (Homo sapiens, UniProt P36888, D835H).
T6 construct: purchased Eurofins DiscoverX KINOMEscan
T6 sequence (P36888 27-993 D835H): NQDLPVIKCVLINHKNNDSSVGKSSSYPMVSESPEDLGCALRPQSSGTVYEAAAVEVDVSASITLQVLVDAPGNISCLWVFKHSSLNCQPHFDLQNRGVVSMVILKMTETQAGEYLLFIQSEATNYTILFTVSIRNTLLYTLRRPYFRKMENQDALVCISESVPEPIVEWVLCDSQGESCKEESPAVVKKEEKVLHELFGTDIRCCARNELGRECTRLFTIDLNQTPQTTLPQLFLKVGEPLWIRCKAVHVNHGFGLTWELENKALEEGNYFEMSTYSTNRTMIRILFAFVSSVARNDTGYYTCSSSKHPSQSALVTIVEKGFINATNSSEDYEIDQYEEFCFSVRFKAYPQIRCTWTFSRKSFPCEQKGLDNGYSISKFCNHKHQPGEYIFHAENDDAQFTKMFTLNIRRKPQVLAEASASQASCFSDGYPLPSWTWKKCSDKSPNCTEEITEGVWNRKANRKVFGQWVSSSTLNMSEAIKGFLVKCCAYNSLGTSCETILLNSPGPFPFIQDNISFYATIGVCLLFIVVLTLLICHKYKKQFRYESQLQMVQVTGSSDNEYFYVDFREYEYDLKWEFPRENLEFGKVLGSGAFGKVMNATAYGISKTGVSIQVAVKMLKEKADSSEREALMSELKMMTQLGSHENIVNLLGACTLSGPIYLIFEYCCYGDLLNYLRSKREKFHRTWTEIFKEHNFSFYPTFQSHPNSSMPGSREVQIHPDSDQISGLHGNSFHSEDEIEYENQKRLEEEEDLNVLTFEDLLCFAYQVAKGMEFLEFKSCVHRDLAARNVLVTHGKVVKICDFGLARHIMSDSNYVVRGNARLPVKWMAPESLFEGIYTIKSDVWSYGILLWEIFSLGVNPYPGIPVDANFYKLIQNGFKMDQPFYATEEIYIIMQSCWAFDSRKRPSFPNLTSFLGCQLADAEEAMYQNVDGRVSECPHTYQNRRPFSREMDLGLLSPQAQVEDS

The structures appear in SMILES notation.

T1 sequence (P42336 whole entry Q546K): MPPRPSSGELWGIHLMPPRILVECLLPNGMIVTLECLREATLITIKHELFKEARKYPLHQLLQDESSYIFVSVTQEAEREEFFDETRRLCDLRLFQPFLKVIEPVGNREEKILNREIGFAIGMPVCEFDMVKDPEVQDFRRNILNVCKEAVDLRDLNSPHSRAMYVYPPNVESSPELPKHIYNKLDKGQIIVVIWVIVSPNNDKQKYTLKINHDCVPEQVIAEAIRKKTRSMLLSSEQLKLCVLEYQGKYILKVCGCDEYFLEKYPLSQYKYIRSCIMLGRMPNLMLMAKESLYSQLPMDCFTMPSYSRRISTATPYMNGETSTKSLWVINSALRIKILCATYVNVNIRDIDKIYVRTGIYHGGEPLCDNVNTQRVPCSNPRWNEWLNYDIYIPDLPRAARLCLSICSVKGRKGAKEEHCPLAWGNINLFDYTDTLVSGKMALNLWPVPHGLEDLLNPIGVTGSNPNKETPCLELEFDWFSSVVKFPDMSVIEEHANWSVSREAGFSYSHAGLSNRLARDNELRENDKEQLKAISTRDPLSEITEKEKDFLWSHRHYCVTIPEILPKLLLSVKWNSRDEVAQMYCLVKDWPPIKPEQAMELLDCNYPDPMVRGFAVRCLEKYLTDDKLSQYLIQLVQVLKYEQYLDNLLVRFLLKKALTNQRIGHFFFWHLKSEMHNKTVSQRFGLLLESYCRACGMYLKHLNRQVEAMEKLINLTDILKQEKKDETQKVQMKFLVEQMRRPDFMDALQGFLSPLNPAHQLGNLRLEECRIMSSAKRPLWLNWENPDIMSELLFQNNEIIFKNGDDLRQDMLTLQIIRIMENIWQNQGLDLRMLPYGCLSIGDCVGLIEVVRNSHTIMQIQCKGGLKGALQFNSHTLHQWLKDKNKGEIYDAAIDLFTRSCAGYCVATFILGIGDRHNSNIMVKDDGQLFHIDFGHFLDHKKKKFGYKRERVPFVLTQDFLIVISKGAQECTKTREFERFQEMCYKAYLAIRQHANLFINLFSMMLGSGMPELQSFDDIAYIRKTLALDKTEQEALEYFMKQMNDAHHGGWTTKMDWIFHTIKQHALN
T2 sequence (P19525 whole entry): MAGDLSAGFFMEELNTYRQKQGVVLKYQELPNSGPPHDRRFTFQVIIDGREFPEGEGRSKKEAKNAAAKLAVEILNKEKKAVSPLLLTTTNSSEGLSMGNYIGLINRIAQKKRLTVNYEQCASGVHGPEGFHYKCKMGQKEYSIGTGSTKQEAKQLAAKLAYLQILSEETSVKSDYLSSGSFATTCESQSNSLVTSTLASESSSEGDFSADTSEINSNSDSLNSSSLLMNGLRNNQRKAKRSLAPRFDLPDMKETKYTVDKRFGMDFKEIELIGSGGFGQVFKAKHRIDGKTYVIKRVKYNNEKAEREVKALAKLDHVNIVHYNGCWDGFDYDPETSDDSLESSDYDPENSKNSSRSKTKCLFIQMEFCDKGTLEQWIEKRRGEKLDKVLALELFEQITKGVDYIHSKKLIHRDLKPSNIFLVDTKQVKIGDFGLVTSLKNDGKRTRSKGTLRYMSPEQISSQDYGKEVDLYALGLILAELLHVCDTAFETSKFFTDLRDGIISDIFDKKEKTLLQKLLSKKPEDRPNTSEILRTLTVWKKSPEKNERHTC
T5 sequence (O60331 whole entry): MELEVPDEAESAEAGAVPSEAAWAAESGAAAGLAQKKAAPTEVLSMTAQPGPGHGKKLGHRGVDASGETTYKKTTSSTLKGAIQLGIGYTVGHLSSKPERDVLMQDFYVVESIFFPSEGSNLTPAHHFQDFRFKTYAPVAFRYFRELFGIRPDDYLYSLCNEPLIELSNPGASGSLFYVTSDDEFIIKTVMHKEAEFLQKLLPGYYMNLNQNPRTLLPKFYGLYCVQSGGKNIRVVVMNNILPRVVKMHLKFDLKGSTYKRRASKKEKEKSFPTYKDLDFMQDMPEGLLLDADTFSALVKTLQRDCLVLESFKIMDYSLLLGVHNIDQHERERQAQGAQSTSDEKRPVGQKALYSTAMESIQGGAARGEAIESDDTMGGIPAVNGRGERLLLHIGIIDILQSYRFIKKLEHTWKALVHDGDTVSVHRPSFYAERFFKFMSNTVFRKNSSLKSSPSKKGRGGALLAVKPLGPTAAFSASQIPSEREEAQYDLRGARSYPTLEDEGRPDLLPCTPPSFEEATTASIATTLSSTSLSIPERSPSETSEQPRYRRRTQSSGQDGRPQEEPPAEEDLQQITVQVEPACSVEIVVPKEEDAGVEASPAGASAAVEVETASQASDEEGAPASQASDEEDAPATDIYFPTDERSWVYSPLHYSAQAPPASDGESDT

`Clc1cc(NCC2CC2)c2ncc(-c3ccc4[nH]ncc4c3)n2n1` [compound 2, 6-Chloro-N-(cyclopropylmethyl)-3-(1H-indazol-5-yl)imidazo[1,2-b]pyridazin-8-amine]: the remaining binding at 1 µM at PIK3CA(Q546K) worked out at 88%; on PRKR, 97%; at TXK, 85%; at MYO3B, 82%; at PIP5K1C, 85%; at FLT3(D835H), 13%.

Consider `O=C(CN1CCOCC1)N[C@H]1CC[C@H](Nc2cc(Cl)nn3c(-c4ccc5[nH]ncc5c4)cnc23)CC1` [compound 26], for which the remaining binding at 1 µM at PIK3CA(Q546K) was 100%; at PRKR, 97%; at TXK it was 88%; on MYO3B, 92%; on PIP5K1C, 91%; at FLT3(D835H) it was 5.5%.

In the case of `CN1CCC(CNc2cc(Cl)nn3c(-c4cc5nc(Nc6ccccc6)[nH]c5cc4F)cnc23)CC1` [compound 31, 6-Chloro-3-(6-fluoro-2-(phenylamino)-1H-benzo[d]imidazol-5-yl)-N-((1-methylpiperidin-4-yl)methyl)imidazo[1,2-b]pyridazin-8-amine], the remaining binding at 1 µM on PIK3CA(Q546K) was determined as 81%; at PRKR, 81%; on TXK, 93%; at MYO3B, 73%; on PIP5K1C, 84%; on FLT3(D835H) it was 90%.

The values above are taken from article PMC6437697 (Journal of Medicinal Chemistry, 2019).
